Reference: patent US6211425A, “Patch” (Saitama Daiichi Seiyaku Kabushiki Kaisha, priority 1996, dated 2001)
“Also recorded” adds a separate entry of the source.

Legend:
[1] = hydrolytic stability of formoterol (general statement); format: physicochemical; settings: preparations having high water contents
[2] = percutaneous absorption of formoterol (finding of the inventors); settings: formoterol and/or salts thereof not in a dissolved state

Compound: COc1ccc(CC(C)NCC(O)c2ccc(O)c(NC=O)c2)cc1 (centres unmarked) [formoterol]
- hydrolysis [1]: hydrolyzed; also recorded: easily hydrolyzable
- percutaneous absorption [2]: extremely poor percutaneous absorption
